Test results: patent US8962608B2, “Cycloalkylnitrile pyrazole carboxamides as janus kinase inhibitors” (Merck Sharp & Dohme Corp., priority 2011, dated 2015)

Assays:
[1] = target: JAK1 (recombinant purified GST-tagged catalytic domain) (Homo sapiens (Human), UniProt P23458);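 further: biochemical assay with HTRF read-out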
[2] = target: JAK2 (recombinant purified GST-tagged catalytic domain) (Homo sapiens (Human), UniProt O60674);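 further: biochemical JAK kinase assay with HTRF detection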
JAK2 (recombinant purified GST-tagged catalytic domain), sequence (O60674 849-1124): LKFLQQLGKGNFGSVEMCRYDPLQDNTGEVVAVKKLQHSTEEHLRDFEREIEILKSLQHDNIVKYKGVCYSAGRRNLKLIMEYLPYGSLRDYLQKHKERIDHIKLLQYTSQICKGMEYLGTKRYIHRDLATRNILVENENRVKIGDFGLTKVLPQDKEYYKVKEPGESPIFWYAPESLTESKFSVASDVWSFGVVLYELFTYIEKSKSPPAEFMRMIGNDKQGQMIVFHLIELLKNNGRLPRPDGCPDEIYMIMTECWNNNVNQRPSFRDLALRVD

JAK1 (recombinant purified GST-tagged catalytic domain), sequence (P23458 875-1153): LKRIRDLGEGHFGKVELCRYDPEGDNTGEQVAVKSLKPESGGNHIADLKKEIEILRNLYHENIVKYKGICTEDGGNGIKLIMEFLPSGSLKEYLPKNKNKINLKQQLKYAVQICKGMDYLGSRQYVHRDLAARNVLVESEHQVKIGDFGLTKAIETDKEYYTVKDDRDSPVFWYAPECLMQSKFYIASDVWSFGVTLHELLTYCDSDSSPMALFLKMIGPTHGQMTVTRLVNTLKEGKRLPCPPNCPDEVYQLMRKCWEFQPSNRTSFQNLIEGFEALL

Row | IC50 [1] [nM] | IC50 [2] [nM] | SMILES
1 | 410 | > 1500 | CN(C)[C@H]1CC[C@H](C#N)[C@@H](n2cc(C(N)=O)c(Nc3ccc(F)cc3)n2)C1 (mixture of isomers) [Example 6-1, 1-[(1S,2S,5S and 1R,2R,5R)-2-cyano-5-(dimethylamino)cyclohexyl]-3-[(4-fluorophenyl)amino]-1H-pyrazole-4-carboxamide]
2 | 158 | > 1500 | CC(C)(C)OC(=O)NCC1CC[C@@H](C#N)[C@@H](n2cc(C(N)=O)c(Nc3ccc(F)cc3)n2)C1 (mixture of isomers) [Example 11-8, tert-butyl {[(3S,4R) and (3R,4S)]-3-{4-carbamoyl-3-[(4-fluorophenyl)amino]-1H-pyrazol-1-yl}-4-cyanocyclohexyl]methyl}carbamate]
3 | 2 | 30 | N#C[C@H]1C[C@@H](NCC2(O)CC2)CC[C@@H]1n1cc(C(N)=O)c(Nc2ccc(Cl)cc2)n1 (single isomer, unassigned) [Example 28-220, 3-[(4-chlorophenyl)amino]-1-[(1S,2S,4S or 1R,2R,4R)-2-cyano-4-{[(1-hydroxycyclo-propyl)methyl]amino}cyclohexyl]-1H-pyrazole-4-carboxamide]
4 | 3 | 8 | C[C@]1(C#N)CC[C@@H](F)C[C@@H]1n1cc(C(N)=O)c(Nc2ccc(F)cc2)n1 (mixture of isomers) [Example 19-1, 1-((1S,2S,5R and 1R,2R,5S)-2-cyano-5-fluoro-2-methylcyclohexyl)-3-((4-fluorophenyl)amino)-1H-pyrazole-4-carboxamide]
5 | 2 | 14 | N#C[C@H]1CCCCC1n1cc(C(N)=O)c(Nc2ccc(S(=O)(=O)C(F)F)c(CO)c2)n1 (mixture of isomers) [Example 17-64, 1-[(1S,2S and 1R,2R )-2-cyanocyclohexyl]-3-({4-[(difluoromethyl)sulfonyl]-3-(hydroxymethyl)phenyl}amino)-1H-pyrazole-4-carboxamide]

The remaining lines, values behind:

Row | SMILES | IC50 [1] [nM] | IC50 [2] [nM]
6 | N#C[C@H]1C[C@H](N2CCC2)CC[C@@H]1n1cc(C(N)=O)c(Nc2ccc(OC(F)F)nc2)n1 (single isomer, unassigned) [Example 28-2, 1-[(1S,2S,4R or 1R,2R,4S)-4-(azetidin-1-yl)-2-cyanocyclohexyl]-3-{[6-(difluoromethoxy)pyridin-3-yl]amino}-1H-pyrazole-4-carboxamide] | 4 | 67
7 | C[C@]1(C#N)CCCC[C@@H]1n1cc(C(N)=O)c(Nc2ccc(F)cc2)n1 (mixture of isomers) [Example 19-2, 1-((1S,2S and 1R,2R)-2-cyano-2-methylcyclohexyl)-3-((4-fluorophenyl)amino)-1H-pyrazole-4-carboxamide] | 4 | 11
8 | N#CC1CCC2(CC1n1cc(C(N)=O)c(Nc3ccccc3)n1)OCCO2 (centres unmarked) [Example 2-3, 1-(8-cyano-1,4-dioxaspiro[4.5]dec-7-yl)-3-(phenylamino)-1H-pyrazole-4-carboxamide] | 9 | 47
9 | CC(C)(C)OC(=O)NCC1CC[C@H](C#N)[C@@H](n2cc(C(N)=O)c(Nc3ccc(F)cc3)n2)C1 (single isomer, unassigned) [Example 11-10, tert-butyl {[(1S or R,3S,4S) and (1R or S,3R,4R)]-3-{4-carbamoyl-3-[(4-fluorophenyl)amino]-1H-pyrazol-1-yl}-4-cyanocyclohexyl]methyl}carbamate] | 110 | 1300
10 | CS(=O)(=O)c1ccc(Nc2nn([C@H]3CCC[C@@H]3C#N)cc2C(N)=O)cc1 (mixture of isomers) [Example 1-4, 1-{[(1S,2S) and (1R,2R)-2-cyanocyclopentyl]}-3-{4-(methylsulfonyl)phenyl]amino}-1H-pyrazole-4-carboxamide] | 0.5 | 11
11 | N#C[C@H]1CC[C@H](NCc2ccccc2)C[C@@H]1n1cc(C(N)=O)c(Nc2ccc(F)cc2)n1 (mixture of isomers) [Example 6-4, 1-{[(1S,2S,5S) and (1R,2R,5R)]-5-(benzylamino)-2-cyanocyclohexyl}-3-[(4-fluorophenyl)amino]-1H-pyrazole-4-carboxamide] | 4 | 55
12 | N#C[C@H]1CCC[C@@H]1n1cc(C(N)=O)c(Nc2ccccc2)n1 (mixture of isomers) [Example 1-2, 1-{[(1S,2S) and (1R,2R)]-2-cyanocyclopentyl]}-3-(phenylamino)-1H-pyrazole-4-carboxamide] | 8 | 101
13 | N#C[C@@H]1CCCC(F)[C@@H]1n1cc(C(N)=O)c(Nc2ccccc2)n1 (some centres unmarked) [Example 23-2] | 67 | 212
